Data: PMC11228623, “Photoswitchable glycoligands targeting Pseudomonas aeruginosa LecA” (Beilstein Journal of Organic Chemistry, 2024)

How the values were obtained:
[1] = Photostationary state composition (E/Z ratios) by 1H NMR and UV–vis after irradiation; type: physicochemical; settings: for Z/E PSS370: after 370 nm irradiation; for E/Z PSS485: after 485 nm irradiation; for E-isomer mixed with the Z-isomer as established by PSS370: Z-isomer samples used for ITC
Experimental: General experimental details. Commercially available solvents and reagents were used without further purification. Reactions carried out under anhydrous conditions are performed under argon in glassware previously dried in an oven. DMF and THF were previously dried through alumina or molecular sieves-containing cartridges using a solvent purificator MBRAUN SPS-800. All the reactions with azobenzene-containing substrates were carried out in the dark. Reactions were monitored by TLC on Silica Gel 60F-254 plates with detection by UV (254 nm or 365 nm) or by spraying with 10% H2SO4 in EtOH and heating about 30 s at 400–600 °C. Column chromatography purification was performed on CombiFlash® Rf+ and RediSep® RF or RF Gold normal phase silica columns (with UV detection at 254 and 350 nm for all azobenzene derivatives), or by flash column chromatography employing silica gel (60 Å pore size, 40–63 µm). ^1H and ^13C NMR spectra were recorded on a JEOL ECS-400 spectrometer or on Bruker Avance 300 and 400 spectrometers. Structural assignments were made with additional information from gCOSY, HMBC, and gHMQC experiments. High-resolution mass spectra (HRMS) were performed on a Bruker maXis mass spectrometer by the SALSA platform from ICOA laboratory or on an Agilent 1260 Infinity system with a quadrupole time-of-light (Q-TOF) mass analyzer. Melting points were measured with a Köfler bench previously calibrated using the usual standard references or on a digital melting point capillary apparatus. Specific optical rotations were measured in solution using sodium light at 589 nm where no absorption occurred for all compounds. Absorption spectra were recorded on a Cary-5000 spectrophotometer from Agilent Technologies. Photochromic reactions were induced in situ by a continuous irradiation Hg/Xe lamp (Hamamatsu, LC6- or LC8-Lightningcure, 200 W) equipped with narrow band interference filters of appropriate wavelengths: Semrock BP-370/36 for λirr = 370 nm, Semrock FF01-438/24-25 for λirr = 438 nm, Semrock FF01-485/20-25 for λirr = 485 nm. The irradiation power was measured using a photodiode from Ophir (PD300-UV) and corrected after a measurement with an additional Schott long pass filter (LP-545) to measure NIR contribution (PLP) that is let through the Semrock filter (PTotal), considering a 90% transmittance: Pλirr = PTotal − (10/9 × PLP). The photoconversion reaction was followed by a combination of ^1H NMR and UV–vis absorption spectra, realized by successive irradiations at 370 nm (438 or 485 nm). The E/Z ratios were determined by integration of the azobenzene proton signals of each isomer. A quartz cell of 10 mm path length has been used for solution measurement.
The photoconversion yields were measured from a solution of the compounds in deuterated solvent and monitored by ^1H NMR and UV–vis absorption, after successive irradiations at 370 nm (438 nm or 485 nm) in the case of the PSS. The E/Z ratios were determined by integration of characteristic of each isomer.

[2] = molecular target: T1, LecA (Pseudomonas aeruginosa, UniProt Q05097); assay: Isothermal titration calorimetry (ITC) of ligand binding to LecA; settings: ITC Kd, E-isomer the better binder
T1 construct: LecA was expressed and purified as previously described; made in house
T1 sequence (Q05097 whole entry): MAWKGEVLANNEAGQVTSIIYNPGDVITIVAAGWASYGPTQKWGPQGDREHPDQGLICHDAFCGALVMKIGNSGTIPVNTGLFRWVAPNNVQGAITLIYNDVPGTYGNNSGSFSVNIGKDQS
From the text: The interaction of compounds 1–5 with LecA was characterized by ITC analysis for both the E- and Z-isomers. As the initial isomer state of the galactosyl azobenzenes is the E-form, ITC measurements made on E-isomers correspond to 100% purity of them. After 370 nm irradiation to induce the photoizomerisation process, a photostationary state is reached between E- and Z-isomers. For ITC measurements made on Z-isomers, the percentage of isomers is shown in the column Z/E (PSS370) of Table 1. Depending on the corresponding galactosyl azobenzenes, the Z-isomer is pure from 87 to 99%. Spectroscopy measurements were performed on ligand solution just before each experiment to check the efficiency of the isomerization, with results as indicated in Table 2.
Isothermal titration calorimetry: LecA was expressed and purified as previously described. All experiments were performed at 25 °C with an ITC200 isothermal titration calorimeter (Microcal-Malvern Panalytical, Grenoble, France). The lyophilized LecA protein was dissolved in a buffer composed of 20 mM Tris^.HCl (pH 7.5), 100 mM NaCl and 100 μM CaCl2 with 5% or 10% DMSO final. All compounds were first dissolved in DMSO then in same buffer for a final concentration of 5% or 10% DMSO. […]

[3] = Fatigue resistance under alternated UV/vis irradiation cycles; type: physicochemical; settings: alternated UV (370 nm) and visible irradiation cycles, aqueous media
From the text: Figure 2 (Left) Absorption spectra and (right) fatigue resistance of 1 under alternated 370/485 nm irradiations in Tris buffer/DMSO 95:5 at rt: E-1 (black line), PSS370 (blue line), PSS485 (red line). Irradiation conditions at 370 nm: 12.8 mW·cm^−2, 20 s; at 485 nm: 1.5 mW·cm^−2, 480 s.
General procedure for the fatigue resistance measurements
Starting from a solution of compound containing 100% of the E-isomer, the solution was irradiated sequentially at 370 nm and at 485 nm or 438 nm. The absorbance was measured before and after each illumination realized with constant optical length distance. The sequence, which constitutes a cycle, was repeated for a minimum of 10 times.
Fatigue resistance of the compound 2
Figure S15: Left: absorption spectra of E-2 (black line), PSS370 (blue line), PSS438 (red line) in Tris buffer/ DMSO (9/1); Right: Fatigue resistance followed by the absorption band at 3 21 nm under alternate 3 70 nm/438 nm irradiation cycles in Tris buffer/DMSO (9/1). Irradiation conditions: 40 s at P 370 = 14.1 mW cm-2 and 180 s at P 438 […]
Fatigue resistance of the compound 3
Figure S16: Left: absorption spectra of E-3 (black line), PSS 370 (blue line), PSS 485 (red line) in Tris buffer/DMSO (9/1); Right: Fatigue resistance followed by the absorption band at 3 64 nm under alternate 3 70 nm/485 nm irradiation cycles in Tris buffer/DMSO (9/1). […]

[4] = Thermal Z→E isomerization tracked by UV–vis absorption (half-life of Z-isomers); type: physicochemical; settings: Tris buffer with 5% DMSO, pH 7.5, solvent not given; read-out: t1/2 (thermostability of Z-isomer) (converted)
From the text: The photoswitching properties of galactosyl azobenzenes 1–5 were realized in water or in Tris buffer containing 5 to 10% DMSO, in accordance with the biophysical evaluation conditions by using ITC. All these compounds undergo reversible photoisomerization under UV–vis irradiation in aqueous solution. […] After irradiation at 370 nm to induce the E-to-Z photoisomerization, the band at 353 nm decreases concomitantly to the appearance of two new bands at 312 and 438 nm (Figure 2, blue line). Two isosbestic points can also be observed at 310 and 429 nm. The back Z→E photoisomerization can be achieved by illumination at 485 nm (Figure 2, red line). ^1H NMR spectroscopy has been used to determine the Z/E ratios during irradiation, showing an excellent photoconversion yield of Z/E = 99:1 at PSS370, and E/Z = 87:13 at PSS485 in D2O/5% DMSO (Figure 3). […] All the photophysical properties of compounds 1–5 are summarized in Table 1 (spectra are shown in Figure S1–S24 in Supporting Information File 1). Concerning the meta-substituted azobenzene 2, a 30 nm blue shift is observed for the π→π* transition (λmax = 321 nm) as well as a lower absorption coefficient compared to the para-derivative 1 (Table 1, entries 3 and 4 vs entries 1 and 2), probably due to less-conjugated azobenzene. […]
The half-lif e o f Z -1 at roo m temperatur e wa s the n calculated: […]

[5] = molecular target: T1, LecA; settings: ref [5]–[8][32]; cited from earlier work

NCCOc1ccc(/N=N/c2ccc(O[C@@H]3O[C@H](CO)[C@H](O)[C@H](O)[C@H]3O)cc2)cc1 [compound 1]
Z/E PSS370 ([1]; H2O): 99/1
E/Z PSS485 ([1]; H2O): 87/13
Z/E PSS370 ([1]; Tris/DMSO 5%): 99/1
E/Z PSS485 ([1]; Tris/DMSO 5%): 87/13
difference in affinity between E- and Z-isomers [2]: 3 fold
fatigue resistance [3]: no degradation has been observed after more than 10 UV–vis irradiation cycles

NCCOc1cccc(/N=N/c2cccc(O[C@@H]3O[C@H](CO)[C@H](O)[C@H](O)[C@H]3O)c2)c1 [compound 2]
Z/E PSS370 ([1]; Tris/DMSO 5%): 87/13
E/Z PSS485 ([1]; Tris/DMSO 5%): 71/29
Z/E PSS370 ([1]; Tris/DMSO 10%): 87/13
E/Z PSS438 ([1]; Tris/DMSO 10%, after 438 nm irradiation (footnote d)): 74/26^d
E-isomer mixed with the Z-isomer as established by PSS370 [1]: 13%
half-life [4]: 29 days

NCCOc1ccc(/N=N/c2ccc(S[C@@H]3O[C@H](CO)[C@H](O)[C@H](O)[C@H]3O)cc2)cc1 [compound 3]
Z/E PSS370 ([1]; H2O): 99/1
E/Z PSS485 ([1]; H2O): 73/27
Z/E PSS370 ([1]; Tris/DMSO 10%): 99/1
E/Z PSS485 ([1]; Tris/DMSO 10%): 71/29
difference in affinity between E- and Z-isomers [2]: 2 fold

NCCOc1ccc(/N=N/c2cccc(S[C@@H]3O[C@H](CO)[C@H](O)[C@H](O)[C@H]3O)c2)cc1 [compound 4]
Z/E PSS370 ([1]; Tris/DMSO 10%): 99/1
E/Z PSS485 ([1]; Tris/DMSO 10%): 72/28

NCCOc1ccc(/N=N/c2ccccc2S[C@@H]2O[C@H](CO)[C@H](O)[C@H](O)[C@H]2O)cc1 [compound 5]
Z/E PSS370 ([1]; Tris/DMSO 10%): 92/8
E/Z PSS485 ([1]; Tris/DMSO 10%): 60/40
E-isomer mixed with the Z-isomer as established by PSS370 [1]: 8%

O=C[C@H](O)[C@@H](O)[C@@H](O)[C@H](O)CO [ᴅ-galactose]
Kd [5]: 34 µM
